Assay results published in patent publication US8455522B2, “Benzoxazolone derivatives as aldosterone synthase inhibitors” (Novartis AG, priority 2009, dated 2013).

Legend:
aldosterone synthase = target: T1, aldosterone synthase (Homo sapiens, UniProt P19099); test: Aldosterone cell secretion in NCI-H295R cells (aldosterone synthase inhibition, SPA); assay type: cell-based; conditions: human adrenocortical carcinoma NCI-H295R cells, 1 μM Ang II, 24 hr
T1 construct: host or cells: NCI-H295R
T1 sequence (P19099 25-503): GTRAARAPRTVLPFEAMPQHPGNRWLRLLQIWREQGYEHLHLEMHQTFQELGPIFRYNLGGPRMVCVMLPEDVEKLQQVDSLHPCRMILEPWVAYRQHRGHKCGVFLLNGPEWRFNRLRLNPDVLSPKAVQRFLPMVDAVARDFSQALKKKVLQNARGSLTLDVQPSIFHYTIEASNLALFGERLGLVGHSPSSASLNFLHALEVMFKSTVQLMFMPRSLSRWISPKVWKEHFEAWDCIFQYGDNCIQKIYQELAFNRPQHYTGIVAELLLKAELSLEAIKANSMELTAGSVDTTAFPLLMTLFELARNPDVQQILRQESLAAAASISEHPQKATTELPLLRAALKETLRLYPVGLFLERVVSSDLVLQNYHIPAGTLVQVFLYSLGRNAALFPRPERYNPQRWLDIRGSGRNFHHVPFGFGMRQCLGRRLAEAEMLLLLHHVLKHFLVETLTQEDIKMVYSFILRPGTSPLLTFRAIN
Text: In particular, the aldosterone synthase inhibitory activities in vitro can be determined by the following assay.
Human adrenocortical carcinoma NCI-H295R cell line was obtained from American Type Culture Collection (Manassas, Va.). Insulin/transferrin/selenium (ITS)-A supplement (100×). DMEM/F-12, antibiotic/antimycotic (100×), and fetal bovine serum (FBS) were purchased from Invitrogen (Carlsbad, Calif.). Anti-mouse PVT scintillation proximity assay (SPA) beads and NBS 96-well plates were obtained from GE Health Sciences (Piscataway, N.J.) and Corning (Acton, Mass.), respectively. Solid black 96-well flat bottom plates were purchased from Costar (Corning, N.Y.). Aldosterone and angiotensin (Ang II) were purchased from Sigma (St. Louis, Mo.). D-[1,2,6,7-^3H(N)]aldosterone was acquired from PerkinElmer (Boston, Mass.). Nu-serum was a product of BD Biosciences (Franklin Lakes, N.J.). The NADPH regenerating system, dibenzylfluorescein (DBF), and human aromatase Supersomes® were obtained from Gentest (Woburn, Mass.).
For in vitro measurement of aldosterone activity, human adrenocortical carcinoma NCI-H295R cells are seeded in NBS 96-well plates at a density of 25,000 cells/well in 100 μl of a growth medium containing DMEM/F12 supplemented with 10% FCS, 2.5% Nu-serum, 1 μg ITS/ml, and 1× antibiotic/antimycotic. The medium is changed after culturing for 3 days at 37° C. under an atmosphere of 5% CO2/95% air. On the following day, cells are rinsed with 100 μl of phosphate-buffered saline (PBS) and incubated with 100 μl of treatment medium containing 1 μM Ang II and a compound at different concentrations in quadruplicate wells at 37° C. for 24 hr. At the end of incubation, 50 μl of medium is withdrawn from each well for measurement of aldosterone production by an SPA using mouse anti-aldosterone monoclonal antibodies.
Measurement of aldosterone activity can also be performed using a 96-well plate format. Each test sample is incubated with 0.02 μCi of D-[1,2,6,7-^3H(N)]aldosterone and 0.3 μg of anti-aldosterone antibody in PBS containing 0.1% Triton X-100, 0.1% bovine serum albumin, and 12% glycerol in a total volume of 200 μl at room temperature for 1 hr. Anti-mouse PVT SPA beads (50 μl) are then added to each well and incubated overnight at room temperature prior to counting in a Microbeta plate counter. The amount of aldosterone in each sample is calculated by comparing with a standard curve generated using known quantities of the hormone.
(§1) Inhibition of the release of certain steroids can be used as a measure of the respective enzyme inhibition by the added test compounds. The dose-dependent inhibition of enzymic activity by a compound is calculated by means of an inhibition plot which is characterized by an IC50.
The IC50 values for active test compounds are ascertained by a simple linear regression analysis in order to construct inhibition plots without data weighting. The inhibition plot is calculated by fitting a 4-parameter logistic function to the raw data points using the least squares method. The equation of the 4-parameter logistic function is calculated as follows: Y=(d−a)/((1+(x/c)b))+a, where: a=minimum data level, b=gradient, I […], d=maximum data level, x=inhibitor concentration.
The inhibition activity of aldosterone production can also be expressed in percentage inhibition (% inhibition) at a given concentration (e.g. % inhibition at 1 μM), which is the aldosterone level when the cell is treated with the given concentration of a compound of this invention (e.g. concentration of 1 μM) versus the aldosterone excretion when cell is free of the compound of the invention: % inhibition aldosterone production=[(Y−X)/Y]×100 wherein X is the level of aldosterone when the cell is treated with a compound of Formula I; and Y is the level of aldosterone when the cell is free of compound of Formula I.

CYP11B1 = target: T2, CYP11B1 (Homo sapiens, UniProt P15538); test: Cortisol cell secretion in NCI-H295R cells (CYP11B1 activity); assay type: cell-based; conditions: NCI-H295R, compound at 1 μM, read-out: Cortisol cell secretion (% Inhib. @ 1 μM)
T2 construct: the NCI-H295R cells have Cyp11 B1 (steroid 11 β-hydroxylase); host or cells: NCI-H295R
T2 sequence (P15538 25-503): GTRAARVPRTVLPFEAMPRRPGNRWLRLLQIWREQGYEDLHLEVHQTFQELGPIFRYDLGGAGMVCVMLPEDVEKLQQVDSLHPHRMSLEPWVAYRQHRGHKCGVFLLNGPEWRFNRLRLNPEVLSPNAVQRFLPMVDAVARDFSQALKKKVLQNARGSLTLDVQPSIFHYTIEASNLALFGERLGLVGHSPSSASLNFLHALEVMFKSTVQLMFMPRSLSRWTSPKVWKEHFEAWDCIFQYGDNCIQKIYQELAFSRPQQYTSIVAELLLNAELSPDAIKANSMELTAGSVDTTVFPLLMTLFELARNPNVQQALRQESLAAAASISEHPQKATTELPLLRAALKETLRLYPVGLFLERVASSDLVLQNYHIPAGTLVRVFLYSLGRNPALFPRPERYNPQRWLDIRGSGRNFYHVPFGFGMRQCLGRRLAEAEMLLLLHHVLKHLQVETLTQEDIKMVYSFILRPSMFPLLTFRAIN
Text: The in vitro inhibitory activities for CYP1B1 can be determined by the following assay.
The cell line NCI-H295R was originally isolated from an adrenocortical carcinoma and has been characterized in the literature through the stimulable secretion of steroid hormones and the presence of the enzymes essential for steroidogenesis. Thus, the NCI-H295R cells have Cyp11 B1 (steroid 11 β-hydroxylase). The cells show the physiological property of zonally undifferentiated human foetal adrenocortical cells which, however, have the capacity to produce the steroid hormones which are formed in the three, phenotypically distinguishable zones in the adult adrenal cortex.
The NCI-H295R cells (American Type Culture Collection, ATCC, Rockville, Md., USA) are grown in Dulbeoco's Modified Eagle'Ham F-12 Medium (DME/F12), which has been supplemented with Ulroser SF Serum (Soprachem, Geigy-Saint-Christophe, France), insulin, transferrin, selenite (I-T-S, Becton Dickinson Biosiences, Franklin lakes. NJ, USA) and antibiotics in 75 cm^2 cell culture vessels at 37° C. and in a 95% air-5% carbon dioxide atmosphere. The cells are subsequently transferred for colony formation into a 24-well incubation vessel. They are cultivated there in DME/F12 medium, which is now supplemented with 0.1% bovine serum instead of Ultroser SF for 24 hours. The experiment is initiated by cultivating the cells in DME/F12 medium which is supplemented with 0.1% bovine serum albumin and test compound, in the presence or absence of cell stimulants, for 72 hours. The test substance is added in a concentration range from 0.2 nanomolar to […]. Cell stimulants which can be used are angiotensin II (1 D or 100 nanomolar), potassium ions (16 millimolar), forskolin (10 micromolar) or a combination of two stimulants.
The excretion of aldosterone, cortisol, corticosterone and estradiol/estrone into the culture medium can be detected and quantified by commercially available, specific monoclonal antibodies in radioimmunoassays in accordance with the manufacturer's instructions.
as §1
The inhibition activity of cortisol production (CYP11B1 activity) can also be expressed in percentage inhibition (% inhibition) at a given concentration (e.g. % inhibition at 1 μM), which is the cortisol level when cell is treated with the given concentration of a compound of the invention (e.g. concentration of 1 μM) versus the cortisol excretion when cell is free of the compound of the invention. % inhibition cortisol production=[(Y′−X′)/Y′]×100 wherein X′ is the level of cortisol when the cell is treated with a compound of Formula I; and Y′ is the level of cortisol when the cell is free of compound of Formula I.

| IC50 (aldosterone synthase) | inhibition at 1 µM (CYP11B1) | SMILES |
| --- | --- | --- |
| 1.4 nM | 95% | Cn1c(=O)oc2ccc(-c3cncc(C(O)C(F)(F)F)c3)cc21 (centres unmarked) [Example 19, 3-methyl-5-(5-(2,2,2-trifluoro-1-hydroxyethyl)pyridin-3-yl)benzo[d]oxazol-2(3H)-one] |
| 68 nM | 65.5% | CN(c1cncc(-c2ccc3oc(=O)n(C)c3c2)c1)S(=O)(=O)C1CC1 [Example 21, N-methyl-N-(5-(3-methyl-2-oxo-2,3-dihydrobenzo[d]oxazol-5-yl)pyridin-3-yl)cyclopropanesulfonamide] |
| 154 nM | 30% | CCCS(=O)(=O)Nc1cncc(-c2ccc3oc(=O)n(C)c3c2)c1 [Example 28, N-(5-(3-methyl-2-oxo-2,3-dihydrobenzo[d]oxazol-5-yl)pyridin-3-yl)propane-1-sulfonamide] |
| 144 nM | 13% | Cn1c(=O)oc2ccc(-c3cncc(F)c3CO)cc21 [Example 36, 5-(5-fluoro-4-(hydroxymethyl)pyridin-3-yl)-3-methylbenzo[d]oxazol-2(3H)-one] |
